Molecules are shown by their SMILES.

The subject of experiment [1] is cAMP-dependent HCO3^− secretion. The experiment can be described thus: Cyclic nucleotide (cAMP)-dependent HCO3^− secretion, lumen Cl^−/SCFA-free. More on the design: species or system rat. The conditions noted are these: luminal; glibenclamide 100 μM, GlyH-101 10 μM, NPPB 100 μM (data not shown). On the procedure: Stripped mucosal sheets were mounted into Ussing chambers (window area=0.3-0.5 cm^2, Physiologic Instruments, San Diego, Calif.). The mucosal side of tissue was bathed with an unbuffered HCO3^--free Cl^- Ringer solution (see Table 2 for detailed composition) circulated by a gas lift with 100% O2 while the serosal side was bathed with buffered Cl^- Ringer solution (pH 7.4) that contained 25 mM HCO3^- and gassed with 5% CO2/95% O2. Each side contained 3-5 ml of solution and the temperature of the solution was adjusted to and maintained at 37° C. by heated water-jacketed reservoirs. Experiments were performed under short-circuit conditions (Voltage-Current Clamp, VCC MC8; Physiologic Instruments, San Diego, Calif.) to maintain the transepithelial potentials at 0 mV, except for brief interruption at 20-second intervals for recording of open-circuit potential (VT, mV). Two types of approaches were used in the measurement of colonic HCO3^- secretion, namely, measurement of lumen pH or pH stat titration of net alkalinization by colonic mucosa. […] Radiometer Analytical, Villeurbanne, France). The amount of the acid delivered per unit time per surface area was used to quantitate HCO3^- secretion by the mucosa. Measurements were recorded continuously and mean values for consecutive 5 or 10 min periods were averaged. […] The short-circuit current (Isc) was measured in microamperes (μA) and converted into μEq/hr/cm^2. Tissue resistance (R, Ω cm^2) was calculated from Ohm's law. Colon segments were prepared and treated as in the secretagogue-induced HCO3^- secretion experiments except that they were bathed luminally with HCO3^--free Ringer solution that contained no isobutyrate and no Cl^-. Cyclic nucleotide-dependent HCO3^- secretion was calculated as […] (the difference between JHCO3 after minus JHCO3 before the addition of forskolin). When inhibitor was used, it was added at 30 min before […] or forskolin.

In a further experiment the test system is Cl^−/HCO3^− exchange. The experiment can be described thus: Cl^−/HCO3^− exchange activity (Cl^−-dependent HCO3^− secretion). More on the design: species or system rat. Particulars: pretreatment, 100 μM, lumen side (data not shown). On the procedure: Stripped mucosal sheets were mounted into Ussing chambers (window area=0.3-0.5 cm^2, Physiologic Instruments, San Diego, Calif.). The mucosal side of tissue was bathed with an unbuffered HCO3^−-free Cl^− Ringer solution (see Table 2 for detailed composition) circulated by a gas lift with 100% O2 while the serosal side was bathed with buffered Cl^− Ringer solution (pH 7.4) that contained 25 mM HCO3^− and gassed with 5% CO2/95% O2. Each side contained 3-5 ml of solution and the temperature of the solution was adjusted to and maintained at 37° C. by heated water-jacketed reservoirs. […]
Two types of approaches were used in the measurement of colonic HCO3^− secretion, namely, measurement of lumen pH or pH stat titration of net alkalinization by colonic mucosa. […] The amount of the acid delivered per unit time per surface area was used to quantitate HCO3^− secretion by the mucosa. Measurements were recorded continuously and mean values for consecutive 5 or 10 min periods were averaged. The rate of HCO3^− secretion (JHCO3) is expressed as μEq/hr/cm^2. The short-circuit current (Isc) was measured in microamperes (μA) and converted into μEq/hr/cm^2. Tissue resistance (R, Ω cm^2) was calculated from Ohm's law. […]

The subject of experiment [2] is CFTR-mediated and non CFTR-mediated HCO3^− secretion. In words: Isc and pH stat HCO3^− secretion with/without lumen Cl^−, CFTR inhibitors or DIDS (FIGS. 5, 6). Particulars: R568 response. An excerpt: FIG. 3. Experimental approach 1: The Ussing chamber pH-stat set up used to monitor and measure HCO3^- secretion by colonic mucosa. FIG. 4. Experimental Approach 2: Measurement of HCO3^- secretion by colonic mucosa in the presence of apical NPPB/Glibenclamide. FIGS. 5A-5F. Activation of CaSR by […] inhibits CFTR-mediated HCO3^- secretion (JHCO3) and ISC but stimulates non CFTR-mediated HCO3^- secretion (JHCO3) and Isc. Physiological approach assayed with, versus without, lumen Cl^-. FIGS. 6A-6F. Activation of CaSR by […] inhibits CFTR-mediated HCO3^- secretion (JHCO3) and ISC but stimulates CFTR-independent HCO3^- secretion (JHCO3) and Isc. Pharmacological approach assayed with, and without, CFTR transporter inhibitors or AE inhibitor DIDS.

Experiment [3] deals with Cl^− secretion induced by forskolin. The conditions noted are these: rat distal colon; cited from earlier work.
A further experiment deals with distal colonic mucosa. In words: Lumen alkalinization response to [Ca^2+]o (lumen pH, Ussing chamber). The conditions noted are these: for lumen alkalinization rate: mean±SE, n=3. Set-up: species or system rat. The method, then: Experiments were performed using non-fasting male Sprague-Dawley rats and C57BL/6 mice. Rats weighting 100-400 g were obtained from Charles River Laboratories. Mice lacking CaSR expression in intestinal epithelial cells (CaSR^−/−) and their CaSR^+/+ littermates were bred and maintained. CaSR^−/− mice were generated as previously described. Briefly, CaSR flox/flox mice were bred with transgenic mice expressing Cre Recombinase under the control of the villin 1 promoter and genotyped prior to all experiments after an approximate 10-12 generations. Mice were used at 5-10 weeks of age. Animals were fed and maintained on regular chow (Harlan) with free access to water before sacrifice. Animals were sacrificed with standard CO2 inhalation followed by cervical dislocation. The colons were isolated, cut open along the mesenteric border into a flat sheet, and flushed with ice-cold Ringer solutions. Mucosa from the distal colon were carefully hand-stripped off of serosal, muscular and submucosal layers as described and a pair of adjacent mucosal segments were incised and mounted into Ussing chambers. In some experiments, stripped mucosa was incised longitudinally into two equal pieces in order to facilitate comparisons between control and treatment. Short-circuit current and transepithelial resistance differences between these two adjacent tissues were less than 15%.
Stripped mucosal sheets were mounted into Ussing chambers (window area=0.3-0.5 cm^2, Physiologic Instruments, San Diego, Calif.). The mucosal side of tissue was bathed with an unbuffered HCO3^−-free Cl^− Ringer solution (see Table 2 for detailed composition) circulated by a gas lift with 100% O2 while the serosal side was bathed with buffered Cl^− Ringer solution (pH 7.4) that contained 25 mM HCO3^− and gassed with 5% CO2/95% O2. Each side contained 3-5 ml of solution and the temperature of the solution was adjusted to and maintained at 37° C. by heated water-jacketed reservoirs. Experiments were performed under short-circuit conditions (Voltage-Current Clamp, VCC MC8; Physiologic Instruments, San Diego, Calif.) to maintain the transepithelial potentials at 0 mV, except for brief interruption at 20-second intervals for recording of open-circuit potential (VT, mV).
Two types of approaches were used in the measurement of colonic HCO3^− secretion, namely, measurement of lumen pH or pH stat titration of net alkalinization by colonic mucosa. […] The amount of the acid delivered per unit time per surface area was used to quantitate HCO3^− secretion by the mucosa. Measurements were recorded continuously and mean values for consecutive 5 or 10 min periods were averaged. The rate of HCO3^− secretion (JHCO3) is expressed as μEq/hr/cm^2. The short-circuit current (Isc) was measured in microamperes (μA) and converted into μEq/hr/cm^2. Tissue resistance (R, Ω cm^2) was calculated from Ohm's law.
Two equal pieces of mucosa from each colon that were obtained by longitudinal division along the antimessenteric border were mounted into two Ussing chambers. […] After 15 to 30 min, when stabilization was achieved and basal lumen pH recordings performed, HCO3^−-free Ringer solution in the serosal side was replaced by 25 mM HCO3-containing Ringer solution, and changes in lumen pH were monitored and recorded for 15 to 30 min. […]

A further experiment relates to ENaC. The experiment can be described thus: ENaC activity as amiloride-sensitive bumetanide-insensitive Isc, weanling distal colon. More on the design: species or system rat. The conditions noted are these: 2.5% w/w added to diet vs normal 1%; 3 week old rats, distal colon. The method, then: FIG. 17. The inhibitory effect of […] on ENaC was examined electrophysiologically by measuring amiloride-sensitive short-circuit current responses in the presence or absence of […]. Weanling infant distal colonic mucosa, which expresses highest activity of ENaC, is employed and mounted in Ussing chamber. FIGS. 19A-19C. […] Here, the activity of ENaC is measured as amiloride-sensitive bumetanide-insensitive Isc. […] FIGS. 20A-20C. […] The activity of ENaC was measured as amiloride-sensitive bumetanide-insensitive Isc. […] Secretory Cl current is mediated by apical CFTR. This Cl secretory Isc is sensitive to bumetanide, applied to the basolateral side of the epithelium. There, bumetanide inhibits Cl entry from blood into the cell; thus, in the presence of bumetanide, the secretory Cl current is eliminated. Absorptive Na current is mediated by apically located epithelial Na channel (ENaC). This latter current is particularly high in this weanling age and is sensitive to amiloride, when it is applied luminally.

`COc1ccc(Cl)cc1C(=O)NCCc1ccc(S(=O)(=O)NC(=O)NC2CCCCC2)cc1` [glibenclamide]: in experiment [1], the “effect of pretreatment on forskolin stimulatory and R568 inhibitory effects on Isc” value was “abolished”.
With `O=S(=O)(O)c1cc(N=C=S)ccc1C=Cc1ccc(N=C=S)cc1S(=O)(=O)O` [DIDS, 4,4′-diisothiocyano-2,2′-stilbenedisulfonic acid], the “luminal Cl^−-dependent HCO3^− secretory mechanism” value in the experiment on Cl^−/HCO3^− exchange is on record as “partially abolished”. Also, in experiment [2] (FIG. 6C vs. 6A), the AE-associated current entry is recorded as “partially inhibited” and the “CFTR activity (current)” value is reported as “inhibited”. Also, the “HCO3^− secretion rate” value in experiment [2] (FIG. 6F with 6D) was “stimulated or did not change”.
Consider `O=C(O)c1cc([N+](=O)[O-])ccc1NCCCc1ccccc1` [NPPB, 5-nitro-2-(3-phenylpropylamino)benzoic acid], for which the “effect of pretreatment on forskolin stimulatory and R568 inhibitory effects on Isc” value in experiment [1] was “abolished”.
`O=C(CNc1ccc2ccccc2c1)N/N=C/c1cc(Br)c(O)c(Br)c1O` [GlyH-101]: the “effect of pretreatment on forskolin stimulatory and R568 inhibitory effects on Isc” value in experiment [1] is reported as “abolished”.
For `CCCCNc1cc(C(=O)O)cc(S(N)(=O)=O)c1Oc1ccccc1` [Bumetanide], the “inhibition of forskolin-induced Cl^− secretion” value in experiment [3] is reported as about 70%.
As to `C[N+](C)(C)CCOC(N)=O` [Carbachol], in the experiment with distal colonic mucosa (100 μM, serosa, positive control), the “lumen pH response” value is listed as “initial transient increase followed by a sustained increase in lumen pH”.
Take `[Ca+2]` [Ca^2+]: the “basal Isc” value worked out at 1.44±0.32 μEq/hr/cm^2 with distal colonic mucosa (0.5 mM [Ca^2+]o) and 1.10±0.10 μEq/hr/cm^2 in the experiment with distal colonic mucosa (1.2 mM [Ca^2+]o). Besides, the lumen alkalinization rate in the experiment on distal colonic mucosa ([Ca^2+]o = 0.5 mM) is given as 0.013±0.002 pH unit/min/cm^2; in the experiment on distal colonic mucosa ([Ca^2+]o = 1.2 mM), 0.031±0.002 pH unit/min/cm^2. For the same compound, the “amiloride-sensitive ENaC-mediated basal Isc” value in the experiment with ENaC is on record as “suppressed”.
